Reference: paper PMC10476265, “Optimized LC-MS/MS Method for the Detection of ppCCK(21–44): A Surrogate to Monitor Human Cholecystokinin Secretion” (Journal of Proteome Research, 2023)
Where no end group is shown, it is not given here.

Experiments:
[1] = tested on: human duodenal organoid cultures; experiment: Human duodenal organoid secretion assay: CCK8 and ppCCK(21–44) in supernatants and lysates by LC-MS/MS; format: cell-based; settings: 10 μM forskolin + 1 mM glucose vs 1 mM glucose alone, 1 h, 2D human intestinal organoids; similar for both peptides; n = 12 from six experiments in duplicate
Procedure: Human duodenal organoid cultures were established for secretion assays using our established protocol.[16] To improve peptide yield, the cultures were grown in a 6-well plate format, and 400 μL of secretion buffer (0.001% fatty acid-free BSA and 1 mM glucose in saline buffer[16]) was used in the experiments.
Method development, validation, and calibration/quantitation samples were prepared by spiking working solutions of CCK8, CCK33, and ppCCK(21–44) in organoid secretion buffer. For initial CCK detection, lysed organoid cultures were prepared using 6 M guanidine hydrochloride (aq) and snap-frozen prior to extraction.
Based on the experimental design results, the extraction of CCK peptides from organoid lysate and secretion samples was adjusted from previous methods,[16],[17] as per the following steps. […]
To assess CCK secretion, we cultured human intestinal organoids in 2D cultures[16] and collected supernatants and cell lysates after 1 h incubation in either 1 mM glucose or 1 mM glucose and 10 μM forskolin, a known strong stimulus for secretion of a number of gut hormones, including CCK.[17],[18] We were unable to reliably detect sulfated CCK8 in supernatants; however, desulfated CCK8 and ppCCK(21–44) were detected under both culture conditions. […]

[2] = tested on: cholecystokinin (CCK8) (26–33), non-sulfated enzyme immunoassay kit; settings: reported for the kit; ref EK-069-04, Phoenix Peptide; cited from earlier work
Excerpt: (§1) A cholecystokinin (CCK8) (26–33), non-sulfated enzyme immunoassay kit (EK-069-04, Phoenix Peptide, Germany), with 100% reported cross-reactivity with sulfated and non-sulfated CCK8 as well as CCK33 and gastrin, was used for assay validation. The pooled human plasma potassium EDTA anticoagulant (K2EDTA, BioIVT, West Sussex, U.K.) from healthy controls was used as a matrix for the preparation of calibration standards during the clinical sample analysis.

[3] = tested on: cholecystokinin (CCK8) (26–33), non-sulfated enzyme immunoassay kit; experiment: Commercial CCK8 enzyme immunoassay (EK-069-04, Phoenix Peptide): detection and cross-reactivity; format: binding; settings: 50 to 750 pg/mL spiked in secretion buffer, SPE eluate dried and reconstituted in EIA buffer
Excerpt: as §1
We compared the performance of the LC-MS/MS method with a commercially available EIA (EK-069-04, Phoenix Peptide). CCK8 solutions were spiked at different concentrations either alone or in the presence of ppCCK(21–44) into secretion buffer, duplicate samples were extracted as described, and prior to EIA analysis, the SPE eluates were dried under nitrogen and reconstituted in EIA buffer. The concentrations were deduced alongside either extracted calibration curves for LC-MS/MS analysis or non-extracted standard curves as supplied in the EIA kit.

[4] = tested on: CCK1 receptor (CCK1R); settings: statement of the introduction; cited from earlier work
Excerpt: Post-translational processing of preproCCK (ppCCK), including tyrosine-sulfation in the trans-Golgi network and subsequent proteolytic cleavage by prohormone convertases and carboxypeptidase E combined with C-terminal amidation by peptidylglycine α-amidating monooxygenase[5],[6] produces a number of different bioactive CCK peptides (Figure 1). For activation of the CCK1 receptor (CCK1R), which largely mediates the peripheral outcomes described above, sulfation of the CCK peptide is critical, and the bioactive products of ppCCK, named after the number of amino acids retained in the final produc ...

Compound	cross-reactivity of the EIA kit [2]	further results
C=C[C@@]1(C)CC(=O)[C@]2(O)[C@@]3(C)[C@@H](O)CCC(C)(C)[C@@H]3[C@H](O)[C@H](OC(C)=O)[C@@]2(C)O1 [forskolin]		fold stimulation of CCK8 and ppCCK(21–44) secretion [1]: ~2.3 fold
CCK33: 33 amino acid bioactive CCK isoform (KAPSGRMSIVKNLQNLDPSHRISDRDYMGWMDF-NH2; ends and bridges not checked; UniProt P06307 71-103, looked up)	100%	
[Pyr]-QPVPPADPAGSGLQRAEEAPRRQL-acid [ppCCK(21–44), N-terminal peptide fragment of proCCK, surrogate analyte for CCK secretion]		detection by EIA [3]: did not detect
gastrin: closely related peptide hormone sharing the bioactive C-terminus with CCK8	100%	activity at CCK1R [4]: no activity
non-sulfated CCK8: CCK8 without tyrosine sulfate, cross-reactant of the EIA kit	100%	
